{
  "source": "patent US9919029B2",
  "about": "“Methods and pharmaceutical compositions for the treatment of bacterial infections” (INSERM (INSTITUT NATIONAL DE LA SANTE ET DE LA RECHERCHE …, priority 2013, dated 2018)",
  "test_system": "Streptococcus pneumoniae",
  "test": "Streptococcus pneumoniae respiratory infection in mice",
  "type": "in vivo, BALB/c mice",
  "conditions": "severe/advanced infection; nasal flagellin plus antibiotic (oral amoxicillin or intraperitoneal bactrim)",
  "protocol": "(§1) Animals were infected with a lethal dose of Streptococcus pneumoniae (1-5×10^6 CFU of serotypel, clinical isolate E1586) and treated at 40 h and 48 h as depicted in the upper panel. Seventeen hours later (T=65 h), bacterial counts were defined by plating tissue homogenates. The Left side: bacterial counts per lung. Right side: bacterial counts per spleen.\nas §1, with “30” for “40 h and 48”, “Sixteen” for “Seventeen”, “(T=46” for “(T=65”\nAnimals were infected with a lethal dose of Streptococcus pneumoniae (1-5×10^6 CFU of serotypel, clinical isolate E1586) and treated from 12 h to 84 h as depicted in the upper panel. Survival of animals was then analyzed during 5 days.\nFIG. 6. […] (A) S. pneumoniae-infected (2×10^6 CFU) BALB/c mice were treated intraperitoneally with 4.8 mg bactrim, i.e. co-trimoxazole (TMP-SMX) and intranasally with 2.5 μg flagellin FliCΔ174-400 and analyzed as indicated. (B) Survival was monitored every 12 h for 9 days. (C, D) Bacterial counts in lung (C) and spleen (D) was determined by measuring CFU per tissue. […] (E) The body weight of infected animals was measured and expressed relative to the initial weight. […]",
  "data": [
    {"substance": "flagellin", "values": [
      {"measurement": "reduction of number of bacteria compared to the antibiotic therapy alone", "value": "10-to-50 fold"}
    ]}
  ]
}
